Assay results reported in PubChem BioAssay (NCI).
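Interpolation was linear, between the two tested concentrations surrounding the appropriate level; five concentrations were tested over 48 hours in 96-well plates. The concentration for 50% growth inhibition is given as GI50. TGI marks complete inhibition of growth.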

Assays:
Test in all cases: DTP human tumour cell line panel, 48 h; in the data active means GI50 below about 0.43 µM; inactive means the rest
[1] = test system: 786-0 renal
[2] = test system: A498 renal
[3] = test system: A549 NSCLC
[4] = test system: ACHN renal
[5] = test system: BT-549 breast
[6] = test system: CAKI-1 renal
[7] = test system: COLO 205 colon
[8] = test system: DU-145 prostate
[9] = test system: EKVX NSCLC
[10] = test system: HCC-2998 colon
[11] = test system: HCT-116 colon
[12] = test system: HCT-15 colon
[13] = test system: HOP-62 NSCLC
[14] = test system: HS 578T breast
[15] = test system: HT29 colon
[16] = test system: IGROV1 ovarian
[17] = test system: K-562 leukemia
[18] = test system: KM12 colon
[19] = test system: LOX IMVI melanoma
[20] = test system: M14 melanoma
[21] = test system: MALME-3M melanoma
[22] = test system: MCF7 breast
[23] = test system: MDA-MB-231 breast
[24] = test system: MDA-MB-435
[25] = test system: MOLT-4 leukemia
[26] = test system: NCI-H226 lung
[27] = test system: NCI-H23 lung
[28] = test system: NCI-H460 lung
[29] = test system: NCI-H522 lung
[30] = test system: NCI/ADR-RES ovarian
[31] = test system: OVCAR-3 ovarian
[32] = test system: OVCAR-4 ovarian
[33] = test system: OVCAR-5 ovarian
[34] = test system: OVCAR-8 ovarian
[35] = test system: PC-3 prostate
[36] = test system: RPMI-8226 leukemia
[37] = test system: RXF 393 renal
[38] = test system: SF-268 CNS
[39] = test system: SF-295 CNS
[40] = test system: SF-539 CNS
[41] = test system: SK-MEL-2 melanoma
[42] = test system: SK-MEL-28 melanoma
[43] = test system: SK-MEL-5 melanoma
[44] = test system: SK-OV-3 ovarian
[45] = test system: SN12C renal
[46] = test system: SNB-19 CNS
[47] = test system: SNB-75 CNS
[48] = test system: SW-620 colon
[49] = test system: T-47D breast
[50] = test system: TK-10 renal
[51] = test system: U251 CNS
[52] = test system: UACC-257 melanoma
[53] = test system: UACC-62 melanoma
[54] = test system: UO-31 renal
[55] = test system: HOP-92 NSCLC
[56] = test system: SR leukemia

COC(=O)C1CC2(c3ccc(C)cc3)C(c3ccc(C)cc3)=C(c3ccc(C)cc3)C1(c1ccc(C)cc1)S2=O (configuration not stated)
> 100 µM: TGI [1] | TGI [3] | TGI [4] | TGI [5] | TGI [6] | TGI [7] | TGI [8] | TGI [9] | TGI [10] | TGI [11] | TGI [12] | TGI [13] | TGI [14] | TGI [15] | TGI [16] | TGI [17] | TGI [18] | TGI [19] | TGI [20] | TGI [21] | TGI [22] | TGI [23] | TGI [24] | TGI [25] | TGI [26] | TGI [27] | TGI [28] | TGI [29] | TGI [30] | TGI [31] | TGI [33] | TGI [34] | TGI [35] | TGI [36] | TGI [37] | TGI [38] | TGI [39] | TGI [40] | TGI [41] | TGI [42] | TGI [43] | TGI [44] | TGI [45] | TGI [46] | TGI [48] | TGI [49] | TGI [50] | TGI [51] | TGI [52] | TGI [53] | TGI [54]
50.5 µM: TGI [2]
inactive: GI50 [1] 70.8 µM | GI50 [2] 4.88 µM | GI50 [3] > 100 µM | GI50 [4] > 100 µM | GI50 [5] > 100 µM | GI50 [6] > 100 µM | GI50 [7] > 100 µM | GI50 [8] > 100 µM | GI50 [9] > 100 µM | GI50 [10] > 100 µM | GI50 [11] 73.2 µM | GI50 [12] > 100 µM | GI50 [13] 34.8 µM | GI50 [14] 48.6 µM | GI50 [15] 41.4 µM | GI50 [16] 98.4 µM | GI50 [17] > 100 µM | GI50 [18] > 100 µM | GI50 [19] > 100 µM | GI50 [20] > 100 µM | GI50 [21] > 100 µM | GI50 [22] > 100 µM | GI50 [23] > 100 µM | GI50 [24] > 100 µM | GI50 [25] > 100 µM | GI50 [26] > 100 µM | GI50 [27] > 100 µM | GI50 [28] > 100 µM | GI50 [29] 96.3 µM | GI50 [30] 85.5 µM | GI50 [31] > 100 µM | GI50 [32] 22.5 µM | GI50 [33] > 100 µM | GI50 [34] 37.9 µM | GI50 [35] > 100 µM | GI50 [36] > 100 µM | GI50 [37] 90.2 µM | GI50 [38] > 100 µM | GI50 [39] 57.6 µM | GI50 [40] > 100 µM | GI50 [41] > 100 µM | GI50 [42] > 100 µM | GI50 [43] > 100 µM | GI50 [44] > 100 µM | GI50 [45] > 100 µM | GI50 [46] 36.2 µM | GI50 [47] 10.6 µM | GI50 [48] > 100 µM | GI50 [49] 60.4 µM | GI50 [50] > 100 µM | GI50 [51] 65.1 µM | GI50 [52] > 100 µM | GI50 [53] > 100 µM | GI50 [54] > 100 µM
81.2 µM: TGI [32]
29.6 µM: TGI [47]

N/C(=N\Nc1nc2cc([N+](=O)[O-])ccc2o1)c1ccccn1
1.45 µM: TGI [43]
1.19 µM: TGI [28]
2.13 µM: TGI [23] | TGI [47]
3.6 µM: TGI [2]
1.93 µM: TGI [1]
4.26 µM: TGI [27]
0.0696 µM: TGI [56]
> 100 µM: TGI [14] | TGI [17] | TGI [24] | TGI [48]
1.11 µM: TGI [8]
0.222 µM: TGI [11]
9.6 µM: TGI [4]
0.341 µM: TGI [52]
58.4 µM: TGI [21]
1 µM: TGI [40]
10.6 µM: TGI [34]
8.44 µM: TGI [6]
1.54 µM: TGI [53]
6.38 µM: TGI [44]
1.23 µM: TGI [51]
0.796 µM: TGI [49]
3.68 µM: TGI [5] | TGI [19]
14 µM: TGI [39]
1.62 µM: TGI [38]
5.71 µM: TGI [55]
2.8 µM: TGI [13]
0.497 µM: TGI [37]
0.202 µM: TGI [9]
2.63 µM: TGI [41]
4.83 µM: TGI [36]
5.51 µM: TGI [50]
38 µM: TGI [26]
3.85 µM: TGI [45]
4.45 µM: TGI [30]
6.14 µM: TGI [35]
